# Data reported in patent publication US20220233523A1, “ANTIBIOTIC POTENTIATION FOR NONTUBERCULOUS MYCOBACTERIAL DISEASE” (priority 2019, published 2022).
# Assays:
# [1] = tested on: planktonic cultures of MAH104; experiment: Growth of planktonic cultures in non-supplemented 7H9 with metabolites; format: cell-based, Mycobacterium avium subsp hominissuis 104 (MAH104); details: propionic acid and butyric acid at 0.05%, glycerol 0.2%; 12 days at 37° C.
# Procedure: MAH104 from 7H10 agar was used to make bacterial suspension in deionized water (10^9 CFU/ml) and then the suspension was centrifuged three times to wash the bacteria cells (3500 rpm for 20 minutes at 20° C.). After washing step, the bacterial suspensions were resuspended in 7H9 medium and suspensions were left alone to allow clumped bacteria to settle. The top half of the suspension was transferred to new tube and adjusted to 1×10^8 CFU/ml, using visual turbidity and optical density. […] These cultures were incubated at 37° C. for 12 days and the O.D.595 nm was measured at each 72 hours.
# We determined the optimal concentration for the growth of MAH104 in non-supplemented 7H9 media since the amounts of these metabolites available in Biolog plates are unknown. […] The experiments were made in non-supplemented 7H9 medium (without any carbon sources: no OADC, no glycerol, and no tween 20 or 80) (FIG. 2A-C), which is the condition applied in the biofilms assay.
# MAH 3388 biofilm = experiment: Amikacin with short-chain fatty acids on biofilm of lung isolate MAH 3388; format: cell-based; details: for CFU/mL, MAH 3388: amikacin concentration: 4 mg/ml, untreated 9.4 +/− 0.2 × 10^7; for activity to potentiate Amikacin activity: biofilms of MAH 3388
# Procedure: As a negative control, biofilms were incubated only with non-supplemented 7H9 without any antibiotics. […] Subsequently, 100 μl of 0.02% of Triton X-100 (final concentration 0.01%) was added to the established biofilms to mix, dilute and perform CFU analysis with the entire population of biofilms (attached and unattached).
# Biofilms were established from an MAH strain isolated from the lungs of a patient (MAH 3388).
# MAH 3393 biofilm = experiment: Amikacin with short-chain fatty acids on biofilm of lung isolate MAH 3393; format: cell-based; details: amikacin concentration: 4 mg/ml; untreated 1.0 +/− 0.8 × 10^8
# MAH104 biofilms = format: cell-based, Mycobacterium avium subsp hominissuis 104 (MAH104); details: O.D.590 nm, biofilm vs planktonic
# Procedure: Metabolic phenotype study was performed with planktonic and biofilm cultures using the 96-well plates PM1 and PM2A (BIOLOG™, Hayward, Calif.). The assays with planktonic cells and biofilms were made at the same time. Each plate contains carbon substrates and one negative control well, in which the bacteria is tested without any substrate. The tests with planktonic and biofilm cultures were performed at the same time and the culture inoculum have the same number of passages. […] The experiments were made as an end-point assay.
# The cultures of biofilms were established for 7 days in regular polystyrene 96 well plates, not in PM Biolog plates, as described above with a minor difference. […] (total of 14 days of biofilm incubated at 37° C.). To obtain spectrophotometric measurements from biofilm cultures (O.D.590 nm), the plate was centrifuged for 20 minutes at 3500 rpm at 20° C., which reduce bacteria interference with the readings, and biofilm supernatant was transferred to a new 96 well plates for O.D.590 nm measurement.
# Experiments were performed three times as an end-point assay. If planktonic and/or biofilm cultures were able to metabolize a specific metabolite substrate, electrons from NADH reduce the Redox dye in an irreversible reaction that generates a purple color in the PM plate wells. The signal (+) and (−) indicates, respectively, whether a purple color was produced or not. Abiotic reductions of the Redox dye were assessed through adding bacteria-free GN/GP-IF-0a fluid in the wells. Negative control corresponds to the wells without any metabolic substrate.
SMILES,growth of planktonic MAH104 in non-supplemented 7H9 [1],"CFU/mL, MAH 3388 (MAH 3388 biofilm)",activity to potentiate Amikacin activity (MAH 3388 biofilm),"CFU/mL, MAH 3393 (MAH 3393 biofilm)",lower capacity of biofilms to use the substrate compared with planktonic cultures (MAH104 biofilms) [fold]
CCCC(=O)O [Butyric acid],able to grow,9.7 +/− 0.6 × 10^7 CFU/mL,confirmed,6.2 +/− 0.7 × 10^7 CFU/mL,
OCC(O)CO [Glycerol],able to support MAH104 growth,,,,11.14
CCC(=O)O [Propionic acid],able to grow,9.6 +/− 0.4 × 10^7 CFU/mL,confirmed,1.7 +/− 0.4 × 10^7 CFU/mL,5.49
